Results published in US7195888B2, “Calcium-independent phospholipase A2 induces ischemic ventricular arrhythmias and decreases infarction size” (Washington University in St. Louis, priority 2002, dated 2007).
Entries after “also recorded” stand apart in the source; their conditions may differ.

Experiments:
ischemic myocardium = assay: Infarct size after ischemia in hearts overexpressing iPLA2β; design: species or system mouse; conditions: iPLA2β overexpression, BEL treatment
Description: Control or iPLA2β transgenic mice were perfused retrograde through the aorta for an equilibration interval prior to the induction of ischemia by ligating the LAD coronary artery. After 15 min. of ischemia the tissue was fixed and the magnitude of infarcted tissue was assessed on a 1 to 5 scale. […] Moreover, the deliberate overexpression of iPLA2β increases infarct size which can be reduced with BEL treatment. Thus the discovery clearly for the first time defines a evidences iPLA2β as a pharmacologic target in any aspect of phospholipase work by discriminating iPLA2β activity from other phospholipases by the traditional pharmacologic criteria of knockdown, inhibition and rescue by inhibition of the species-specific knock down pathophysiology. The evidence is this proof of concept thereby formally provides an intact, functional organ model to test the effect of pharmacologic agents on ischemia induced arrhythmias by inhibition of iPLA2β regulatory networks. […] Collectively, the inventor discovered herein a seminal discovery in that it defines and evidences for the first time in molecular detail a protein target, iPLA2β, for prevention and treatment of ventricular arrhythmias in ischemic zones and identifies a new way to screen for additional targets.

[1] = test system: Langendorf-perfused mouse hearts; assay: Ischemia-induced ventricular arrhythmias (PVCs, VT) after LAD coronary ligation in isolated Langendorf-perfused mouse hearts; conditions: for frequency of PVCs (PVC frequency/5 min interval) after coronary ligation: BEL 10 μM pretreatment from 5 min before ligation, 30 min ischemia
Description: Data are presented as the +/− standard deviation. A, frequency of PVCs in wild type control mouse hearts (open bars, n=19) and in TGiPLA2β transgenic mouse hearts (closed bars, n=24) in the absence of BEL pretreatment (−BEL). Total PVCs were recorded in 5 minute intervals (0–5, 5–10, 10–15, 15–20, 20–25, and 25–30 min) after ligation of the LAD coronary artery in TGiPLA2β and wild-type control Langendorf hearts. The mean PVC frequency per interval (PVC frequency/5 min interval) was then plotted vs time interval after coronary ligation. […] B, The effect of BEL pretreatment (+BEL) on PVC frequency measured in 5 min intervals after coronary litigation. […] C, Frequency histogram showing total episodes of VT in TGiPLA2β transgenics (closed bars, n=24) vs wild-type control hearts (open bars, n=19) with (+) and without (−) BEL pretreatment.
To determine the role of iPLA2β in arrhythmogenesis during acute cardiac ischemia, a Langendorf perfused heart preparation was employed^6. […] The frequency of spontaneous PVCs was higher in hearts expressing iPLA2β compared with controls at each 5 minute time interval examined during 30 minutes of ischemia (p=0.0003 vs WT by MANOVA) (FIG. 4). Multiple episodes of non-sustained VT occurred in TGiPLA2β hearts (9 of 24 hearts) compared with a single episode in one WT heart (1 of 19 hearts) (p=0.002).
Isolated perfused mouse heart preparations were utilized as previously referenced (1). Briefly, a traditionally accepted ex vivo intact model of acute ischemia was studied. The left anterior descending (LAD) coronary artery was occluded in isolated perfused hearts. Mice were anesthetized with sodium pentobarbital (150 mg/kg IP), and their hearts were rapidly excised and placed in oxygenated Krebs-Henseleit buffer containing (in mmol/L): NaCl 118.3, KCl 2.7, MgSO4 1.0, KH2PO4 1.4, NaHCO3 29.0, CaCl2 3.4, and glucose 10, plus insulin 70 mU/L and BSA 2.8%, at 37° C. Hearts were perfused by retrograde aortic flow with oxygenated buffer at 37° C. Flow rates were adjusted to maintain constant perfusion pressures of 45 to 50 mm Hg. Hearts were simultaneously superfused in a bath containing oxygenated buffer at 37° C. to maintain constant temperature.(1) Circulation 101:547–552 (2000).
Ischemic Studies with Isolated Langendorf-Perfused Mouse Hearts. Ventricular tachyarrhythmias induced by acute ischemia were characterized with use of an isolated, Langendorf-perfused heart preparation as described previously by Lerner et al^6 which is incorporated herein in its entirety by reference. Frequencies of spontaneous arrhythmias (PVCs, and episodes of VT) were counted for 30 min after coronary ligation and tablulated as PVC frequency per 5 minute intervals. A run of ventricular tachycardia was defined as 10 or more beats with a cycle length <100 msec. After 30 min, hearts were perfused through the aortic catheter with 1% Evans blue dye. To determine the effects of BEL on induction of arrhythmias after ischemia, hearts were perfused with buffer containing 10 μM BEL beginning 5 min before coronary ligation and during ischemia. All studies were randomized and blinded.

iPLA2β [2] = assay: Acylcarnitine content of ischemic zone of Langendorf perfused hearts by ESI mass spectrometry; design: species or system mouse; conditions: BEL 10 uM for 5 min, 15 min ischemia
Description: The ischemia-induced increase in acylcarnitines in wild type mice is inhibited by BEL. Moreover, iPLA2β transgenic mice sustain a dramatic increase in acylcarnitine content during myocardial ischemia in comparison to wild type mice.
Next, ischemia was induced by ligating a marginal branch of the LAD coronary artery and ischemia was induced for 15 minutes. Aliquots of the ischemic zone were taken and rapidly frozen. After addition of internal standard, aliquots of frozen tissue were extracted and analyzed for acylcarnitine content by ESI mass spectrometry by comparisons to standard utilizing methods previously described.

iPLA2γ = biological target: T1, iPLA2γ (Homo sapiens, UniProt Q9NP80); conditions: racemic BEL; cited from earlier work
T1 sequence (Q9NP80 1-782): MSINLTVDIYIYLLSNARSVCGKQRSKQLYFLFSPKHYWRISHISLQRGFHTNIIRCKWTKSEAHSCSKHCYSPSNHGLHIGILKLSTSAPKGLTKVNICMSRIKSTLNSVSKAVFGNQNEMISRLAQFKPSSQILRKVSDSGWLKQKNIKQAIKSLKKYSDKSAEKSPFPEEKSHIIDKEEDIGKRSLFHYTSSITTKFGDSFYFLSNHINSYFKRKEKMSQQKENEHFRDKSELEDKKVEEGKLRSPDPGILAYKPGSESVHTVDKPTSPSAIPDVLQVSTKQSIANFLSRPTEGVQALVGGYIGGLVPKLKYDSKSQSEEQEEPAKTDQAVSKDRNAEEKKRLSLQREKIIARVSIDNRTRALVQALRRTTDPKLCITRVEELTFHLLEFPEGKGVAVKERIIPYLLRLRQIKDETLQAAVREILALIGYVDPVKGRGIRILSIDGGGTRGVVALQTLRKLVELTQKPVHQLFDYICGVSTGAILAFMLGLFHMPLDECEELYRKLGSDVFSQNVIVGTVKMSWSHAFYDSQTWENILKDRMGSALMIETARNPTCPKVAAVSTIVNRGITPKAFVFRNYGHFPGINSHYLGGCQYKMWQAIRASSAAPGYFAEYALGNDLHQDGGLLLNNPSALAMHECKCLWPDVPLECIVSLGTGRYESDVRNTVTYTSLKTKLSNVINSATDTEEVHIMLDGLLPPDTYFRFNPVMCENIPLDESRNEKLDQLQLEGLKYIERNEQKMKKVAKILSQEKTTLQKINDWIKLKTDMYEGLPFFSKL

iPLA2β [3] = assay: ESI/MS quantification of fatty acid release into effluent and accumulation of fatty acids and lysolipids in ischemic zones of Langendorf perfused hearts; design: species or system mouse; conditions: hearts from transgenic mice, 15 min LAD occlusion, BEL pretreatment
Description: A, Nonesterified fatty acid (NEFA) release obtained from 15 in of effluent from control or ischemic Langendorf hearts. *P<0.001 B, NEFA mass in ischemic heart tissue from WT and TGiPLA2β hearts. *P<0.01. C, Lysophosphatidylcholine (LPC) mass in ischemic tissue from WT and TGiPLA2β hearts. *P<0.0001. Release of NEFA into the effluents (a) and accumulation of NEFA (b) and LPC (c) in ischemic tissue from Langendorf-perfused hearts [WT (light bars) and TGiPLA2β (dark bars)] were measured in the absence or presence of LAD occlusion (ischemia) in the absence (−) or presence […] of BEL pretreatment as indicated.
To determine if ischemia activates iPLA2β catalyzed hydrolysis of lipids in intact myocardium, ESI/MS (electrospray—mass spectrometry) was utilized to quantify the release of fatty acids into the effluent and the accumulation of fatty acids and lysolipids in ischemic zones^19,20. After 15 min of LAD occlusion, increased release of fatty acids was present in the effluents from perfused hearts and both fatty acids and lysolipids accumulated in the ischemic zone of hearts from TG iPLA2β mice but not WT mice (FIG. 3a). […] The concurrent activation of iPLA2β during ischemia in conjunction with the generation of malignant ventricular arrhythmias and their rescue by inhibition of the expressed iPLA2β transgene formally fulfills traditional criteria for proof of a cause and effect relationship between two phenomena (i.e., malignant arrhythmias are not present when virtually no iPLA2β activity is present (WT mice) and malignant arrhythmias are manifest during activation of the expressed iPLA2β transgene by ischemia and arrhythmias are ablated by mechanism-based inhibition of expressed iPLA2β enzymic activity).
Electrospray Ionization Mass Spectrometry of Lipids from Wild type and Transgenic Mouse Myocardium. Lipids were extracted from mouse myocardium (˜50 mg) by a modified Bligh and Dyer technique utilizing 50 mM LiCl in the aqueous layer in the presence of internal standards selected based on their lack of demonstrable endogenous molecular ions in that region^19,20. ESI/MS analysis was performed utilizing a Finnigan TSQ-7000 Spectrometer as previously described^19,20.

iPLA2β [4] = biological target: T2, iPLA2β (Homo sapiens, UniProt O60733); conditions: racemic BEL; cited from earlier work
T2 sequence (O60733 1-806): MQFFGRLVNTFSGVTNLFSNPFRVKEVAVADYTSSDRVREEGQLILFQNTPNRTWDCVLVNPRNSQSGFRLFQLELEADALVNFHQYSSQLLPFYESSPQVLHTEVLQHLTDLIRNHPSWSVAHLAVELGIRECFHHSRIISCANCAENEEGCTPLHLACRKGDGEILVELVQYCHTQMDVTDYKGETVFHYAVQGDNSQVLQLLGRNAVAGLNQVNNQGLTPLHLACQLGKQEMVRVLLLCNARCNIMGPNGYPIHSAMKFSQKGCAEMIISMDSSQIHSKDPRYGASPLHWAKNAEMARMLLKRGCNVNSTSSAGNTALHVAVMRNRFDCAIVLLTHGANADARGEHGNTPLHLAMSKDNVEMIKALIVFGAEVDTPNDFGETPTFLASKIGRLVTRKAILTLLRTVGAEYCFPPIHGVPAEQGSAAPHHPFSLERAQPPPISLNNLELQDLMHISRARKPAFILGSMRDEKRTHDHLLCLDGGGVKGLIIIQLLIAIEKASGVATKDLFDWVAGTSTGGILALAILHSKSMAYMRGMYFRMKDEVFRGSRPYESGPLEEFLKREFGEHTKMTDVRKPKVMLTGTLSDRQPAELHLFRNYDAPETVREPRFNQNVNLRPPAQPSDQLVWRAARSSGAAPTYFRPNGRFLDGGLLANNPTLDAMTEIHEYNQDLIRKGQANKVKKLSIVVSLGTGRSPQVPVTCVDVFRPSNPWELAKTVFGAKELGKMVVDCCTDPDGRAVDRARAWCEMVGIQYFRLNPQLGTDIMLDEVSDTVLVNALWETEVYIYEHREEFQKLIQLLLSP

ischemic hearts = conditions: previously shown; cited from earlier work
[5] = TGiPLA2β hearts, BEL 10 μM pretreatment, LAD ligation
[6] = listed as phospholipase A2 mechanism-based inhibitor

SMILES | infarct size (ischemic myocardium) | frequency of PVCs (PVC frequency/5 min interval) after coronary ligation ([1]; TGiPLA2β hearts) | episodes of ventricular tachycardia / malignant ventricular tachyarrhythmias [1, 5] | hearts with VT / hearts studied [1, 5] | episodes of ventricular tachycardia / malignant ventricular tachyarrhythmias ([1]; TGiPLA2β hearts, BEL 10 μM pretreatment, LAD ligation, listed as phospholipase A2 mechanism-based inhibitor) | frequency of PVCs (PVC frequency/5 min interval) after coronary ligation ([1]; WT control hearts) | ischemia-induced increase in acylcarnitines (iPLA2β [2]; iPLA2β transgenic hearts) | ischemia-induced increase in acylcarnitines (iPLA2β [2]; wild type (control) hearts) | inhibition of iPLA2γ (iPLA2γ) | accumulation of lysolipids in ischemic zones (iPLA2β [3]) | release of fatty acids (iPLA2β [3]) | accumulation of lysolipids in ischemic zones (iPLA2β [3]; [6]) | release of fatty acids (iPLA2β [3]; [6]) | inhibition of iPLA2β (iPLA2β [4]) | arrhythmias in ischemic hearts (ischemic hearts)
O=C1O/C(=C/Br)CCC1c1cccc2ccccc12 (stereo not drawn) [BEL, (E)-6-(bromomethylene)-3-(1-naphthalenyl)-2H-tetrahydropyran-2-one] | reduced | inhibited the frequency of PVCs; also recorded: significant decrease in PVC frequency | completely abolished VT; also recorded: rescue of ischemia-induced ventricular tachyarrhythmias; also recorded: significant reduction of VT episodes | 0/10 | rescued transgenic hearts from malignant ventricular dysrhythmias | inhibited the frequency of PVCs; also recorded: reduced PVC frequency | inhibitable; also recorded: inhibited | major portion of acyl carnitine accumulation is BEL inhibitable; also recorded: inhibited | inhibits | nearly completely ablated | nearly completely ablated | completely ablated | completely ablated | inhibits | 
CCOC(=O)[C@@]1(CCCCCCOc2ccc(Cl)cc2)CO1 [Etomoxir] |  |  |  |  |  |  |  |  |  |  |  |  |  |  | inhibit arrhythmias
